# Key:
# Mus musculus [1] = assay: Protective dose against maximal electroshock in mice after peroral administration; format: functional; details: po
# Mus musculus [2] = species: Mus musculus; assay: Anticonvulsant potency in mice relative to compound UK-12130 (ED50 of compound 24/compound); format: functional
# [3] = pKa of the compound was determined; format: physicochemical
# [4] = Partition coefficient (logP); format: physicochemical; details: octanol/water
Structure (SMILES),ED50 (Mus musculus [1]) [mg/kg],Potency ratio (Mus musculus [2]),pKa [3],logP [4]
NS(=O)(=O)c1nn2cc(-c3ccccc3O)nc2s1,> 16,<0.6,,
NS(=O)(=O)c1nn2cc(-c3cccs3)nc2s1,> 16,<0.4,,
CC(=O)Nc1nnc(S(N)(=O)=O)s1 [ACETAZOLAMIDE],36,,,
NS(=O)(=O)c1nn2cc(-c3ccc(O)cc3)nc2s1,10,0.9,8.16,
NS(=O)(=O)c1nn2cc(-c3ccccc3)nc2s1,16,0.6,7.12,
Br.NS(=O)(=O)c1nn2ccnc2s1,8,1.4,,
CC(C)(C)c1cn2cc(S(N)(=O)=O)sc2n1,7,1.7,8.37,
Br.NS(=O)(=O)c1nn2cc(C34CC5CC(CC(C5)C3)C4)nc2s1,6,1,,
Br.NS(=O)(=O)c1cn2ccnc2s1,16,0.7,,
Br.CCc1nc2sc(S(N)(=O)=O)nn2c1C,8,1,,
NS(=O)(=O)c1nn2c(-c3ccccc3)cnc2s1,> 16,0.4,,
Cc1ccc(-c2cn3nc(S(N)(=O)=O)sc3n2)cc1,> 16,<0.6,,
COc1ccc(-c2cn3nc(S(N)(=O)=O)sc3n2)cc1,> 16,<0.6,,
CC(C)(C)c1cn2nc(S(N)(=O)=O)sc2n1,2.6,3.2,6.94,
Br.Cc1cn2cc(S(N)(=O)=O)sc2n1,6,1.3,,
Br.NS(=O)(=O)C1=NN2C(=NC3CCCCC32)S1 (configuration not stated),> 16,<0.5,,
CC(=O)Nc1ccc(-c2cn3nc(S(N)(=O)=O)sc3n2)cc1,> 16,<0.4,,
Br.CCc1cn2nc(S(N)(=O)=O)sc2n1,5,1.6,,
Br.Cc1nc2sc(S(N)(=O)=O)nn2c1C,12,0.6,,
CC(=O)/N=c1/sc(S(N)(=O)=O)nn1C [METHAZOLAMIDE],12,0.75,7.2,0.2
Br.Cc1cn2nc(S(N)(=O)=O)sc2n1,5,2.2,,

# — ChEMBL document CHEMBL1121604, “Cerebrovasodilatation through selective inhibition of the enzyme carbonic anhydrase. 2. Imidazo[2,1-b]thiadiazole and imidazo[2,1-b]thiazolesulfonamides” (J Med Chem, 1980)
